This is an account of results in US9540377B2, “2,6,7,8 substituted purines as HDM2 inhibitors” (Merck Sharp & Dohme Corp., priority 2013, dated 2017).

In the first assay the target is HDM2 (truncated, residues 17 to 125, containing p53 binding surface) (Homo sapiens (Human), UniProt Q00987). The assay can be described thus: HDM2 FRET assay (inhibition of binding of FITC labeled p53-site peptide to HDM2). The following applies: Table 16. The source says: IC50 DETERMINATIONS: Dose-response curves were plotted from the inhibition data, from 10 point serial dilutions of inhibitory compounds. Concentration of compound was plotted against em520/Cem495 ratio signal. To generate IC50 values, the dose-response curves were fitted to a standard sigmoidal curve and IC50 values were derived by nonlinear regression analysis.
HDM2 (truncated, residues 17 to 125, containing p53 binding surface), sequence (Q00987 17-125): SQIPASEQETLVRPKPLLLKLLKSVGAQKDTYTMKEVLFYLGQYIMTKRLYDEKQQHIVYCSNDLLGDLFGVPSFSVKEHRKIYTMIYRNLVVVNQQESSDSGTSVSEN
The term IC50 denotes the point on the concentration scale where inhibition reaches its midpoint. Read a low IC50 as greater potency in that assay. `COC(C)(C)C1CCCN1c1nc2nc(-c3noc(=O)[nH]3)nc(-c3cncc(Cl)c3)c2n1C[C@H]1CC[C@H](C)CC1` (single isomer, unassigned) [Example 16.73, 3-{6-(5-chloropyridin-3-yl)-8-[2-(1-methoxy-1-methylethyl)pyrrolidin-1-yl]-7-[(trans-4-methylcyclohexyl)methyl]-7H-purin-2-yl}-1,2,4-oxadiazol-5(4H)-one] gave an IC50 of 1.97 nM.

`C[C@H]1CC[C@H](Cn2c(N3CCOC4CCCCC43)nc3nc(-c4noc(=O)[nH]4)nc(-c4cncc(Cl)c4)c32)CC1` (single isomer, unassigned) [Example 16.51, 3-[6-(5-chloropyridin-3-yl)-7-[(trans-4-methylcyclohexyl)methyl]-8-(octahydro-4H-1,4-benzoxazin-4-yl)-7H-purin-2-yl]-1,2,4-oxadiazol-5(4H)-one] yielded an IC50 of 30.2 nM.

`C[C@H]1CC[C@H](Cn2c(N3CCCC4COCCC43)nc3nc(-c4n[nH]c(=O)o4)nc(-c4cccc(Cl)c4)c32)CC1` (single isomer, unassigned) [Example 16.124, 5-{6-(3-chlorophenyl)-8-(hexahydro-2H-pyrano[4,3-b]pyridin-1(5H)-yl)-7-[(trans-4-methylcyclohexyl)methyl]-7H-purin-2-yl}-1,3,4-oxadiazol-2(3H)-one] showed an IC50 of 263 nM.

Take `Cc1noc(C2CCCN2c2nc3nc(-c4noc(=O)[nH]4)nc(-c4cncc(Cl)c4)c3n2C[C@H]2CC[C@H](C)CC2)n1` (mixture of isomers) [Example 16.143, 3-{6-(5-chloropyridin-3-yl)-7-[(trans-4-methylcyclohexyl)methyl]-8-[2-(3-methyl-1,2,4-oxadiazol-5-yl)pyrrolidin-1-yl]-7H-purin-2-yl}-1,2,4-oxadiazol-5(4H)-one]: the half-inhibitory concentration (IC50) was 1.48 nM.

Compound `C[C@H]1CC[C@H](Cn2c(N3CCOC4CCCCC43)nc3nc(-c4noc(=O)[nH]4)nc(-c4cncc(Cl)c4)c32)CC1` (single isomer, unassigned) [Example 16.52, 3-[6-(5-chloropyridin-3-yl)-7-[(trans-4-methylcyclohexyl)methyl]-8-(octahydro-4H-1,4-benzoxazin-4-yl)-7H-purin-2-yl]-1,2,4-oxadiazol-5(4H)-one] displayed an IC50 of 1 nM.

In turn, `COCCOc1cc(Cl)cc(-c2nc(-c3noc(=O)[nH]3)nc3nc(N4CCO[C@@H]5CCC[C@H]54)n(C[C@H]4CC[C@H](C)CC4)c23)c1` (racemic) [Example 16.160, 3-{6-[3-chloro-5-(2-methoxyethoxyl)phenyl]-8-[(trans)-hexahydrocyclopenta[b][1,4]oxazin-4(4aH)-yl]-7-[(trans-4-methylcyclohexyl)methyl]-7H-purin-2-yl}-1,2,4-oxadiazol-5(4H)-one] had an IC50 of 21 nM. Compared with the last compound, the IC50 is about 21-fold higher.

The assay is the same for the next values; noted with them: Table 18.
The compound `CC([C@H]1CC[C@H](C)CC1)n1c(N2CCOC3CCCC32)nc2nc(-c3noc(=O)[nH]3)nc(-c3cccc(Cl)c3)c21` (single isomer, unassigned) [Example 18.40, 3-{6-(3-chlorophenyl)-8-(hexahydrocyclopenta[b][1,4]oxazin-4(4aH)-yl)-7-[1-(trans-4-methylcyclohexyl)ethyl]-7H-purin-2-yl}-1,2,4-oxadiazol-5(4H)-one] came in with an IC50 of 7.86 nM.

For the compound `CC(C)c1ccnc(-c2nc3nc(-c4noc(=O)[nH]4)nc(N[C@H](C)C4CCC4)c3n2C[C@@H]2CC[C@@H](C)C(F)(F)C2)c1` (stereo in doubt) [Example 18.11, 3-(6-(((R)-1-cyclobutylethyl)amino)-7-((trans-3,3-difluoro-4-methylcyclohexyl)methyl)-8-(4-isopropylpyridin-2-yl)-7H-purin-2-yl)-1,2,4-oxadiazol-5(4H)-one], the IC50 was determined as 2.79 nM. Against the preceding compound, the IC50 is about 2.8-fold lower.

Still in this assay, the particulars now being: Table 23.
In turn, `COC(C)(c1ncccc1F)c1nc2nc(-c3n[nH]c(=O)o3)nc(-c3cncc(Cl)c3)c2n1C[C@H]1CC[C@H](C)CC1` (single isomer, unassigned) [Example 23.86, 5-{6-(5-chloropyridin-3-yl)-8-[1-(3-fluoropyridin-2-yl)-1-methoxyethyl]-7-[(trans-4-methylcyclohexyl)methyl]-7H-purin-2-yl}-1,3,4-oxadiazol-2(3H)-one] showed an IC50 of 0.675 nM.

For `CC(F)(c1c(F)cccc1F)c1nc2nc(-c3n[nH]c(=O)o3)nc(-c3cncc(Cl)c3)c2n1C[C@H]1CC[C@H](C)CC1` (single isomer, unassigned) [Example 23.81, 5-{6-(5-chloropyridin-3-yl)-8-[1-(2,6-difluorophenyl)-1-fluoroethyl]-7-[(trans-4-methylcyclohexyl)methyl]-7H-purin-2-yl}-1,3,4-oxadiazol-2(3H)-one], the IC50 came to 0.289 nM.

`CC(F)(c1ccccn1)c1nc2nc(-c3n[nH]c(=O)o3)nc(-c3cccc(Cl)c3)c2n1C[C@H]1CC[C@H](C)CC1` (single isomer, unassigned) [Example 23.36, 5-{6-(3-chlorophenyl)-8-[1-fluoro-1-(pyridin-2-yl)ethyl]-7-[(trans-4-methylcyclohexyl)methyl]-7H-purin-2-yl}-1,3,4-oxadiazol-2(3H)-one] had a half-maximal inhibitory concentration (IC50) of 9.68 nM.

`CC1COCCC1(F)c1nc2nc(-c3noc(=O)[nH]3)nc(-c3cncc(Cl)c3)c2n1C[C@H]1CC[C@H](C)CC1` (single isomer, unassigned) [Example 23.94, 3-{6-(5-chloropyridin-3-yl)-8-(4-fluoro-3-methyltetrahydro-2H-pyran-4-yl)-7-[(trans-4-methylcyclohexyl)methyl]-7H-purin-2-yl}-1,2,4-oxadiazol-5(4H)-one] showed an IC50 of 23.4 nM.

Turning to `COc1ccccc1C(C)(OC)c1nc2nc(-c3n[nH]c(=O)o3)nc(-c3cncc(Cl)c3)c2n1C[C@H]1CC[C@H](C)CC1` (mixture of isomers) [Example 23.78, 5-{6-(5-chloropyridin-3-yl)-8-[1-methoxy-1-(2-methoxyphenyl)ethyl]-7-[(trans-4-methylcyclohexyl)methyl]-7H-purin-2-yl}-1,3,4-oxadiazol-2(3H)-one], the half-inhibitory concentration (IC50) was 8.22 nM. Compared with the last compound, the IC50 is about 2.8-fold lower.

For `COC(c1nc2nc(-c3n[nH]c(=O)o3)nc(-c3cncc(Cl)c3)c2n1C[C@H]1CC[C@H](C)CC1)C1CCCCC1` (mixture of isomers) [Example 23.22, 5-{6-(5-chloropyridin-3-yl)-8-[cyclohexyl(methoxy)methyl]-7-[(trans-4-methylcyclohexyl)methyl]-7H-purin-2-yl}-1,3,4-oxadiazol-2(3H)-one], the 50% inhibitory concentration (IC50) was 12 nM.

`CC(F)(c1ncccc1F)c1nc2nc(-c3noc(=O)[nH]3)nc(-c3cncc(Cl)c3)c2n1C[C@H]1CC[C@H](C)CC1` (single isomer, unassigned) [Example 23.99, 3-{6-(5-chloropyridin-3-yl)-8-[1-fluoro-1-(3-fluoropyridin-2-yl)ethyl]-7-[(trans-4-methylcyclohexyl)methyl]-7H-purin-2-yl}-1,2,4-oxadiazol-5(4H)-one] registered an IC50 of 0.315 nM.

In the case of `CC(F)(c1ccccc1F)c1nc2nc(-c3noc(=O)[nH]3)nc(-c3cncc(Cl)c3)c2n1C[C@H]1CC[C@H](C)CC1` (single isomer, unassigned) [Example 23.35, 3-{6-(5-chloropyridin-3-yl)-8-[1-fluoro-1-(2-fluorophenyl)ethyl]-7-[(trans-4-methylcyclohexyl)methyl] 7H-purin-2-yl}-1,2,4-oxadiazol-5(4H)-one], the half-inhibitory concentration (IC50) was 0.424 nM.

For the compound `COc1ccccc1C(C)(F)c1nc2nc(-c3noc(=O)[nH]3)nc(-c3cncc(Cl)c3)c2n1C[C@H]1CC[C@H](C)CC1` (single isomer, unassigned) [Example 23.26, 3-{6-(5-chloropyridin-3-yl)-8-[1-fluoro-1-(2-methoxyphenyl)ethyl]-7-[(trans-4-methylcyclohexyl)methyl]-7H-purin-2-yl}-1,2,4-oxadiazol-5(4H)-one], the half-maximal inhibitory concentration (IC50) came out at 5.37 nM.

Regarding `CC(F)(c1c(F)cccc1F)c1nc2nc(-c3noc(=O)[nH]3)nc(-c3cncc(Cl)c3)c2n1C[C@H]1CC[C@H](C)CC1` (single isomer, unassigned) [Example 23.68, 3-{6-(5-chloropyridin-3-yl)-8-[1-(2,6-difluorophenyl)-1-fluoroethyl]-7-[(trans-4-methylcyclohexyl)methyl]-7H-purin-2-yl}-1,2,4-oxadiazol-5(4H)-one], the IC50 was found to be 4.26 nM. The IC50 values of the last two compounds are within 1.5-fold of each other.

Consider `CC(c1ccccc1F)c1nc2nc(-c3noc(=O)[nH]3)nc(-c3cncc(Cl)c3)c2n1C[C@H]1CC[C@H](C)CC1` (mixture of isomers) [Example 23.113, 3-{6-(5-chloropyridin-3-yl)-8-[1-(2-fluorophenyl)ethyl]-7-[(trans-4-methylcyclohexyl)methyl]-7H-purin-2-yl}-1,2,4-oxadiazol-5(4H)-one], for which the IC50 is 1.39 nM.

`CC(O)(c1nc2nc(-c3noc(=O)[nH]3)nc(-c3cccc(Cl)c3)c2n1C[C@H]1CC[C@H](C)CC1)C1CCCCC1` (mixture of isomers) [Example 23.10, 3-{6-(3-chlorophenyl)-8-(1-cyclohexyl-1-hydroxyethyl)-7-[(trans-4-methylcyclohexyl)methyl]-7H-purin-2-yl}-1,2,4-oxadiazol-5(4H)-one] yielded a half-inhibitory concentration (IC50) of 15.6 nM.

Consider `CC(F)(c1c(F)cccc1F)c1nc2nc(-c3n[nH]c(=O)o3)nc(-c3cncc(Cl)c3)c2n1C[C@H]1CC[C@H](C)CC1` (single isomer, unassigned) [Example 23.80, 5-{6-(5-chloropyridin-3-yl)-8-[1-(2,6-difluorophenyl)-1-fluoroethyl]-7-[(trans-4-methylcyclohexyl)methyl]-7H-purin-2-yl}-1,3,4-oxadiazol-2(3H)-one], for which the IC50 stood at 10.7 nM.

Consider `CC(F)(c1ccccc1C#N)c1nc2nc(-c3noc(=O)[nH]3)nc(-c3cncc(Cl)c3)c2n1C[C@H]1CC[C@H](C)CC1` (mixture of isomers) [Example 23.110, 2-{1-[6-(5-chloropyridin-3-yl)-7-[(trans-4-methylcyclohexyl)methyl]-2-(5-oxo-4,5-dihydro-1,2,4-oxadiazol-3-yl)-7H-purin-8-yl]-1-fluoroethyl}benzonitrile], for which the IC50 worked out at 0.515 nM.
